Several values for one entry are separate records, joined by “and”; a condition that tells them apart may be missing. Equal entries are not always repeated. Marks after values point to notes of the source that are not given here.
System: patients with MUM
Assay: Grade ≥3 serious adverse events regardless of study drug relationship
Type: in vivo, human
Procedure: Routine safety assessments, including laboratory assessments, physical examinations, vital signs and electrocardiograms (ECGs), were conducted at regular intervals throughout the study and more frequently as needed following patient assessment by the treating physician. Adverse events (AEs) were assessed continuously according to the National Cancer Institute Common Terminology Criteria for Adverse Events (NCI-CTCAE) v4.03.

## CC1(N)CCN(c2cccnc2NC(=O)c2nc(-c3ncccc3C(F)(F)F)cnc2N)CC1 [LXS196]
100 mg QD
  Acute kidney injury SAE: 0 n (%)
  Cellulitis SAE: 0 n (%)
  Constipation SAE: 0 n (%)
  Diarrhoea SAE: 0 n (%)
  Eyelid bleeding SAE: 0 n (%)
  Hepatic cytolysis SAE: 0 n (%)
  Hepatic failure SAE: 0 n (%)
  Hypotension SAE: 0 n (%)
  Nausea SAE: 0 n (%)
  Neutrophil count decreased SAE: 0 n (%)
  Oedema peripheral SAE: 0 n (%)
  Patients with ≥1 SAE: 0 n (%)
  Pneumonia SAE: 0 n (%)
  Rash pruritic SAE: 0 n (%)
  Thrombocytopenia SAE: 0 n (%)
  Vomiting SAE: 0 n (%)
200 mg BID
  Acute kidney injury SAE: 0 n (%)
  Cellulitis SAE: 1 (16.7) n (%)
  Constipation SAE: 0 n (%)
  Diarrhoea SAE: 0 n (%)
  Eyelid bleeding SAE: 0 n (%)
  Hepatic cytolysis SAE: 0 n (%)
  Hepatic failure SAE: 0 n (%)
  Hypotension SAE: 0 n (%)
  Nausea SAE: 0 n (%)
  Neutrophil count decreased SAE: 0 n (%)
  Oedema peripheral SAE: 0 n (%)
  Patients with ≥1 SAE: 1 (16.7) n (%)
  Pneumonia SAE: 0 n (%)
  Rash pruritic SAE: 0 n (%)
  Thrombocytopenia SAE: 0 n (%)
  Vomiting SAE: 0 n (%)
200 mg QD
  Acute kidney injury SAE: 0 n (%)
  Cellulitis SAE: 0 n (%)
  Diarrhoea SAE: 0 n (%)
  Eyelid bleeding SAE: 0 n (%)
  Hepatic cytolysis SAE: 0 n (%)
  Hepatic failure SAE: 0 n (%)
  Hypotension SAE: 0 n (%)
  Nausea SAE: 1 (25.0) n (%)
  Neutrophil count decreased SAE: 0 n (%)
  Oedema peripheral SAE: 0 n (%)
  Patients with ≥1 SAE: 1 (25.0) n (%)
  Pneumonia SAE: 1 (25.0) n (%)
  Rash pruritic SAE: 0 n (%)
  Thrombocytopenia SAE: 0 n (%)
  Vomiting SAE: 1 (25.0) n (%)
300 mg BID (RDE)
  Acute kidney injury SAE: 1 (5.6) n (%)
  Cellulitis SAE: 0 n (%)
  Constipation SAE: 0 n (%)
  Diarrhoea SAE: 0 n (%)
  Eyelid bleeding SAE: 1 (5.6) n (%)
  Hepatic cytolysis SAE: 1 (5.6) n (%)
  Hepatic failure SAE: 1 (5.6) n (%)
  Hypotension SAE: 0 n (%)
  Nausea SAE: 0 n (%)
  Neutrophil count decreased SAE: 1 (5.6) n (%)
  Oedema peripheral SAE: 1 (5.6) n (%)
  Patients with ≥1 SAE: 5 (27.8) n (%)
  Pneumonia SAE: 1 (5.6) n (%)
  Rash pruritic SAE: 1 (5.6) n (%)
  Thrombocytopenia SAE: 1 (5.6) n (%)
  Vomiting SAE: 0 n (%)
300 mg QD
  Acute kidney injury SAE: 0 n (%)
  Cellulitis SAE: 0 n (%)
  Constipation SAE: 0 n (%)
  Diarrhoea SAE: 0 n (%)
  Eyelid bleeding SAE: 0 n (%)
  Hepatic cytolysis SAE: 0 n (%)
  Hepatic failure SAE: 0 n (%)
  Hypotension SAE: 0 n (%)
  Nausea SAE: 0 n (%)
  Neutrophil count decreased SAE: 0 n (%)
  Oedema peripheral SAE: 0 n (%)
  Patients with ≥1 SAE: 0 n (%)
  Pneumonia SAE: 0 n (%)
  Rash pruritic SAE: 0 n (%)
  Thrombocytopenia SAE: 0 n (%)
  Vomiting SAE: 0 n (%)
400 mg BID
  Acute kidney injury SAE: 0 n (%)
  Cellulitis SAE: 0 n (%)
  Constipation SAE: 0 n (%)
  Diarrhoea SAE: 0 n (%)
  Eyelid bleeding SAE: 0 n (%)
  Hepatic cytolysis SAE: 0 n (%)
  Hepatic failure SAE: 0 n (%)
  Hypotension SAE: 1 (16.7) n (%)
  Nausea SAE: 0 n (%)
  Neutrophil count decreased SAE: 0 n (%)
  Oedema peripheral SAE: 0 n (%)
  Patients with ≥1 SAE: 1 (16.7) n (%)
  Pneumonia SAE: 0 n (%)
  Rash pruritic SAE: 0 n (%)
  Thrombocytopenia SAE: 0 n (%)
  Vomiting SAE: 0 n (%)
500 mg QD
  Acute kidney injury SAE: 0 n (%)
  Cellulitis SAE: 0 n (%)
  Constipation SAE: 0 n (%)
  Diarrhoea SAE: 0^b n (%)
  Eyelid bleeding SAE: 0 n (%)
  Hepatic cytolysis SAE: 0 n (%)
  Hepatic failure SAE: 0 n (%)
  Hypotension SAE: 3 (27.3) n (%)
  Nausea SAE: 0 n (%)
  Neutrophil count decreased SAE: 0 n (%)
  Oedema peripheral SAE: 0 n (%)
  Patients with ≥1 SAE: 3 (27.3) n (%)
  Pneumonia SAE: 0 n (%)
  Rash pruritic SAE: 0 n (%)
  Thrombocytopenia SAE: 0 n (%)
  Vomiting SAE: 0 n (%)
800 mg QD
  Acute kidney injury SAE: 0 n (%)
  Cellulitis SAE: 0 n (%)
  Constipation SAE: 0 n (%)
  Diarrhoea SAE: 0 n (%)
  Eyelid bleeding SAE: 0 n (%)
  Hepatic cytolysis SAE: 0 n (%)
  Hepatic failure SAE: 0 n (%)
  Hypotension SAE: 1 (100) n (%)
  Nausea SAE: 0 n (%)
  Neutrophil count decreased SAE: 0 n (%)
  Oedema peripheral SAE: 0 n (%)
  Patients with ≥1 SAE: 1 (100) n (%)
  Pneumonia SAE: 0 n (%)
  Rash pruritic SAE: 0 n (%)
  Thrombocytopenia SAE: 0 n (%)
  Vomiting SAE: 0 n (%)
1000 mg QD
  Acute kidney injury SAE: 0 n (%)
  Cellulitis SAE: 0 n (%)
  Constipation SAE: 0 n (%)
  Diarrhoea SAE: 0 n (%)
  Eyelid bleeding SAE: 0 n (%)
  Hepatic cytolysis SAE: 0 n (%)
  Hepatic failure SAE: 0 n (%)
  Hypotension SAE: 1 (25.0) n (%)
  Nausea SAE: 0 n (%)
  Neutrophil count decreased SAE: 0 n (%)
  Oedema peripheral SAE: 0 n (%)
  Patients with ≥1 SAE: 2 (50.0) n (%)
  Pneumonia SAE: 1 (25.0) n (%)
  Rash pruritic SAE: 0 n (%)
  Thrombocytopenia SAE: 0 n (%)
  Vomiting SAE: 0 n (%)
All BID
  Acute kidney injury SAE: 1 (3.3) n (%)
  Cellulitis SAE: 1 (3.3) n (%)
  Constipation SAE: 0 n (%)
  Diarrhoea SAE: 0 n (%)
  Eyelid bleeding SAE: 1 (3.3) n (%)
  Hepatic cytolysis SAE: 1 (3.3) n (%)
  Hepatic failure SAE: 1 (3.3) n (%)
  Hypotension SAE: 1 (3.3) n (%)
  Nausea SAE: 0 n (%)
  Neutrophil count decreased SAE: 1 (3.3) n (%)
  Oedema peripheral SAE: 1 (3.3) n (%)
  Patients with ≥1 SAE: 7 (23.3) n (%)
  Pneumonia SAE: 1 (3.3) n (%)
  Rash pruritic SAE: 1 (3.3) n (%)
  Thrombocytopenia SAE: 1 (3.3) n (%)
  Vomiting SAE: 0 n (%)
All QD
  Acute kidney injury SAE: 0 n (%)
  Cellulitis SAE: 0 n (%)
  Constipation SAE: 0^b n (%)
  Diarrhoea SAE: 0^b n (%)
  Eyelid bleeding SAE: 0 n (%)
  Hepatic cytolysis SAE: 0 n (%)
  Hepatic failure SAE: 0 n (%)
  Hypotension SAE: 5 (13.2) n (%)
  Nausea SAE: 1 (2.6) n (%)
  Neutrophil count decreased SAE: 0 n (%)
  Oedema peripheral SAE: 0 n (%)
  Patients with ≥1 SAE: 7 (18.4) n (%)
  Pneumonia SAE: 2 (5.3) n (%)
  Rash pruritic SAE: 0 n (%)
  Thrombocytopenia SAE: 0 n (%)
  Vomiting SAE: 1 (2.6) n (%)
All patients
  Acute kidney injury SAE: 1 (1.5) n (%)
  Cellulitis SAE: 1 (1.5) n (%)
  Constipation SAE: 0^b n (%)
  Diarrhoea SAE: 0^b n (%)
  Eyelid bleeding SAE: 1 (1.5) n (%)
  Hepatic cytolysis SAE: 1 (1.5) n (%)
  Hepatic failure SAE: 1 (1.5) n (%)
  Hypotension SAE: 6 (8.8) n (%)
  Nausea SAE: 1 (1.5) n (%)
  Neutrophil count decreased SAE: 1 (1.5) n (%)
  Oedema peripheral SAE: 1 (1.5) n (%)
  Patients with ≥1 SAE: 14 (20.6%) n (%) and 14 (20.6) n (%)
  Pneumonia SAE: 3 (4.4) n (%)
  Rash pruritic SAE: 1 (1.5) n (%)
  Thrombocytopenia SAE: 1 (1.5) n (%)
  Vomiting SAE: 1 (1.5) n (%)

Reference: paper PMC10006169, “A phase I trial of LXS196, a protein kinase C (PKC) inhibitor, for metastatic uveal melanoma” (British Journal of Cancer, 2023)
